Results: paper PMC5781335, “Identification of danthron as an isoform-specific inhibitor of HEME OXYGENASE-1/cytochrome P450 reductase interaction with anti-tumor activity” (Journal of Biomedical Science, 2018)

B1: recombinant soluble His-tagged HO-2 (His-HO-2), human HO-2 construct (aa 33-288) (domain or fragment, UniProt P30519 33-288, looked up)
chain: LSELLKEGTKEAHDRAENTQFVKDFLKGNIKKELFKLATTALYFTYSALEEEMERNKDHPAFAPLYFPMELHRKEALTKDMEYFFGENWEEQVQCPKAAQKYVERIHYIGQNEPELLVAHAYTRYMGDLSGGQVLKKVAQRALKLPSTGEGTQFYLFENVDNAQQFKQLYRARMNALDLNMKTKERIVEEANKAFEYNMQIFNELDQAGSTLARETLEDGFPVHDGKGDMRKCPFYAAEQDKGALEGSSCPFRTAM
notes: human heme oxygenase-2, construct aa 33-288, in pQE-60 vector; not shown: His6, C-terminal, kept

Assays:
heme oxygenase-1 (HO-1) [1] = biological target: T1, heme oxygenase-1 (HO-1) (Homo sapiens, UniProt P09601); assay: cell-based BRET inhibition of HO-1/CPR interaction in HEK293T
T1 construct: gene HMOX1; Luc-HO-1 (N-terminal luciferase fusion); with cytochrome P450 reductase (CPR-GFP)
T1 sequence (P09601 1-288): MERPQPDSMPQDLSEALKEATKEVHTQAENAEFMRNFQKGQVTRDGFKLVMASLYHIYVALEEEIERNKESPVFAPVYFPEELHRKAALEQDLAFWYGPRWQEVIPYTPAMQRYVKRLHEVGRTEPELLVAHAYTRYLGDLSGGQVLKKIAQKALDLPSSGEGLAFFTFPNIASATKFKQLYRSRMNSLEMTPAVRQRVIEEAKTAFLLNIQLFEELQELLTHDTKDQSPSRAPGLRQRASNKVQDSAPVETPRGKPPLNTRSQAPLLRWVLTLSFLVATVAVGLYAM
T1 sequence (P16435 2-677 partner): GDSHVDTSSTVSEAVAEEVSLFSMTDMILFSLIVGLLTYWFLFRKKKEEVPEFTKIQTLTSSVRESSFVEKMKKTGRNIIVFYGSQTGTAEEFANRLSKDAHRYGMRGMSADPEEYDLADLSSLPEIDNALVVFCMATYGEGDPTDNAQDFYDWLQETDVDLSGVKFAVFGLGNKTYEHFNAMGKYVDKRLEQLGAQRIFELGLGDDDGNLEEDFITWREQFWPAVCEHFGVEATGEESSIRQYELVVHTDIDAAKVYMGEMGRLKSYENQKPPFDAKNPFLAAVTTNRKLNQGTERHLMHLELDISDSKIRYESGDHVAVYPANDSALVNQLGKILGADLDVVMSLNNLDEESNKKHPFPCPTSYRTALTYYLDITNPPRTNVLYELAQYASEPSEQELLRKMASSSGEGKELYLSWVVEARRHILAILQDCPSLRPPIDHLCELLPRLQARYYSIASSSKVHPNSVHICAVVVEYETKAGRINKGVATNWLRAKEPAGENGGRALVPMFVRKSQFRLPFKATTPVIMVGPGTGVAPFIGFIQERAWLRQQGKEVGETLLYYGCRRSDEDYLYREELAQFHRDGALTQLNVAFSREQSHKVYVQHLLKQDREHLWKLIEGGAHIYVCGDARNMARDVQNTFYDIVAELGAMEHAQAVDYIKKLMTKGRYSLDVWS

heme oxygenase-1 (HO-1) [2] = biological target: T2, heme oxygenase-1 (HO-1) (Homo sapiens, UniProt P09601); assay: pull-down of purified His-HO-1 by resin-bound CPR-GFP ([…] danthron); IC50 from cell-based BRET
T2 construct: gene HMOX1; truncated human HO-1 (aa 13–260), C-terminal 6 x His-tag (pull-down); Luc-HO-1 (BRET); with cytochrome P450 reductase (CPR-GFP)
T2 sequence (P09601 13-260): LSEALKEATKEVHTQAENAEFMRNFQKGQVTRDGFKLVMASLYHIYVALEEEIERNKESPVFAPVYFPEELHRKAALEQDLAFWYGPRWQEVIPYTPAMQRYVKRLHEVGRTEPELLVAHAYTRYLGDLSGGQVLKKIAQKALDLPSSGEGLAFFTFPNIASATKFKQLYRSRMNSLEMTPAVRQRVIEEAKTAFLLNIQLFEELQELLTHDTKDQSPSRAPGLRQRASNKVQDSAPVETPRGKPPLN
T2 sequence (P16435 2-677 partner): T1 sequence (P16435 2-677 partner)

[3] = biological target: T3, CPR construct with its carboxyl-terminus fused to GFP (CPR-GFP) (human, UniProt P16435 1-677); assay: pull-down; CPR-GFP immunoprecipitated from HEK293T lysate on anti-GFP-affinity Sepharose, washed, incubated with 1 ug His-HO-1 or His-HO-2 in 100 ul buffer A (20 mM Tris-HCl pH 7.4, 100 mM NaCl) at room temperature for 1 h, without or with 10 uM danthron or anthrarufin; blot with anti-His and anti-GFP; conditions: both partners purified
T3 construct: human cytochrome P450 reductase (CPR) cDNA subcloned with GFP2 cDNA into a pCMV-2 vector; BRET acceptor; bait on anti-GFP Sepharose in the pull-down; also called cytochrome P450 reductase; source: HEK293T, transfected; not shown: GFP2, C-terminal, kept
T3 sequence (looked up): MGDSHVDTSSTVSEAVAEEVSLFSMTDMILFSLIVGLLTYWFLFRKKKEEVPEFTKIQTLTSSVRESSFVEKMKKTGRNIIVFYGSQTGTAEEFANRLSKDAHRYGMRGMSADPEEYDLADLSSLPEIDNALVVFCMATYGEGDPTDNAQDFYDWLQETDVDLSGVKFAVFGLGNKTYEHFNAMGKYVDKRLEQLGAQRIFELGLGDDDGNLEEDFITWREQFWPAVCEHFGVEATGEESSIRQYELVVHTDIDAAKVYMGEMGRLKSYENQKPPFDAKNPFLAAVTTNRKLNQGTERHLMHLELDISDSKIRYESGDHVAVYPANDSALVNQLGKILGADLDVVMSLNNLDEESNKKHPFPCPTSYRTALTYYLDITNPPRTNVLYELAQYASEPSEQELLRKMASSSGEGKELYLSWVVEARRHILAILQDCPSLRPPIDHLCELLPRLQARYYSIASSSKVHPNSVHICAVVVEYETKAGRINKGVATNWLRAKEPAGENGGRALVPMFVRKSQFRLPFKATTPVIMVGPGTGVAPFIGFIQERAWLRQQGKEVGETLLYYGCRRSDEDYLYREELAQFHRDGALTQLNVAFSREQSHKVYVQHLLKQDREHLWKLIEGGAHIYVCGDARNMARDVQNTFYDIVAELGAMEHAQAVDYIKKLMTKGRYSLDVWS

Molecule	IC50 (heme oxygenase-1 (HO-1) [1]) [µM]	further results
O=C1c2cccc(O)c2C(=O)c2c(O)ccc(O)c21 [1,4,5-trihydroxyanthra-9,10-quinone]	10.4	
O=C1c2ccccc2C(=O)c2c(O)cccc21 [1-hydroxyanthra-9,10-quinone]	10.1	
O=C1c2cccc(O)c2C(=O)c2c(O)cccc21 [danthron]		IC50 (heme oxygenase-1 (HO-1) [2]): 2.09 µM
B1		binding result [3]: binds
